Where two headings read alike, the source gives them in different places.
Columns and labels:
[1] = molecular target: T1, human MCT1 (Homo sapiens, UniProt P53985); assay: MCT1 transport inhibition assay (TPGA uptake, LC-MS/MS); type: cell-based; conditions: MDCK-II cells overexpressing human MCT1, TPGA transport, read-out: BioIVT MCT1 Transporter IC50
T1 construct: expressed in transfected cells; host or cells: MDCK-II cells, transiently co-transfected for 48 h
T1 sequence (P53985 1-500): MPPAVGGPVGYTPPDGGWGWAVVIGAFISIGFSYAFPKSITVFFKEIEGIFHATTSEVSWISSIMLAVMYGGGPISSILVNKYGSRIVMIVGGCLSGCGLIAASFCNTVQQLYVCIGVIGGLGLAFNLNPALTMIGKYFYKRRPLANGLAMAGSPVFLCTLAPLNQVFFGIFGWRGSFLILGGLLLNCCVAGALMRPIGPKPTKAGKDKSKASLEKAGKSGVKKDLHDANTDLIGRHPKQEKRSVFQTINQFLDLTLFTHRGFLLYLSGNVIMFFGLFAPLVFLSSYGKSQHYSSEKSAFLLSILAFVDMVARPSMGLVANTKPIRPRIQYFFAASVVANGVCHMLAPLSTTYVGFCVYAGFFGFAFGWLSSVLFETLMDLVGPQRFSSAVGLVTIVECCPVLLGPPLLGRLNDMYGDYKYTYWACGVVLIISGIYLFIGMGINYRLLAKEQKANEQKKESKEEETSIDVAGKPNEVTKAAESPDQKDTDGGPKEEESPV
T1 sequence (P35613 140-385 partner limits assumed): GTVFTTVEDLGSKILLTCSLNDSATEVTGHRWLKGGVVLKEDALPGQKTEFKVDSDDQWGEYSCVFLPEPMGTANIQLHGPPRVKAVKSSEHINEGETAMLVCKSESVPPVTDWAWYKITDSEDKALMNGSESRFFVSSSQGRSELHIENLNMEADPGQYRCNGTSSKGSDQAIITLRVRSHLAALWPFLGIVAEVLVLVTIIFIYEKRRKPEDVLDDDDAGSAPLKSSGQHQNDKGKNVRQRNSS
Experimental: Inhibition of MCT1 transport after treatment with compounds of the present invention was measured in MDCK-II cells that overexpress human MCT1 by quantifying the transport of 2-Thiophene-glycoxylic acid (TPGA) into cells using LC-MS/MS.
MDCK-II cells are seeded at 60,000 cells per well in growth medium (low-glucose DMEM+10% FBS) in 96-well trans-well membrane plates, and incubated overnight (37° C., 5% CO2). Cells were co-transfected with mammalian expression constructs coding for MCT1 and CD147 at a 2:1 ratio or an empty vector control (GFP) and then incubated for 48 h (37° C., 5% CO2). Cells were washed 3 times with HBSS and cells were preincubated with inhibitors or vehicle control at room temperature in HBSS for 30 min with orbital shaking (60 rpm). HBSS was aspirated from the wells and replaced with HBSS with 25 mM Bis-Tris pH5.5+inhibitor or vehicle control+500 μM TPGA and incubated for 1 min at room temperature with orbital shaking (60 rpm). Both the apical and basolateral side of the trans-well insert were washed 4 times with ice-cold PBS. Cells were lysed with 60 μL of cell extraction solution, and the amount of TPGA in each well was quantified in triplicate by LC-MS/MS. The MCT1-mediated uptake rate was calculated using the following equation: […]
Percent inhibition for each concentration of inhibitor tested was calculated using the following equation: […]
Curves were fit to the calculated percent inhibition for each inhibitor, and the IC50 representing the concentration of inhibitor at which MCT1 is inhibited by 50% was calculated from this curve.

[2] = tested on: Daudi (Burkitt Lymphoma) cells; assay: Intracellular lactate accumulation assay (Lactate-Glo, 2 h treatment); type: cell-based; conditions: Homo sapiens, read-out: LactateGlo EC50
Experimental: Intracellular lactate accumulation after a 2 h treatment with compounds of the present invention was measured in Daudi (Burkitt Lymphoma) cells using the Lactate-Glo Assay (Promega).
Daudi cells were seeded at 7,500 cells per well in 150 μL of growth medium (RPMI-1640 with 2 mM GlutaMAX+10% FBS) in clear, 96-well, flat-bottom microplates, and incubated overnight (37° C., 5% CO2). Compounds of the present invention were added using an INTEGRA VIAFLO 96 (8 point, 3-fold serial dilution, top concentration 1, 10, or 20 μM, 0.4% final DMSO concentration). After a 2 h incubation (37° C., 5% CO2) microplates containing cells were washed twice with 150 μL ice-cold PBS, resuspended in 25 μL ice-cold PBS containing 12.5 μL 0.6N HCl, and placed on a microplate shaker for 5 min to lyse the cells. Following lysis, 12.5 μL 1M Trizma base was added to neutralize the suspension, and microplates were returned to the microplate shaker for 1 min. Plates were sealed and stored at −20° C. until further processing. On the day of the assay, microplates were thawed for 45 min at room temperate and […] Lactate Detection Reagent (prepared as specified by manufacturer) was added to each well. Microplates were placed on a plate shaker for 1 min and incubated at room temperature for 1 h. Luminescence was measured using a BioTek Cytation 5 Multi-Mode Reader. Curve fitting and calculation of EC50 was performed using GraphPad Prism.

Row | SMILES | EC50 [2] | also measured
1 | Cc1[nH]nc(C(F)(F)F)c1Cc1sc2c(c1C(=O)N1C[C@](C)(O)CO1)c(=O)n(C)c(=O)n2C(C)C [AZD3965] | – | IC50 ([1]; numeric values): 190 nM
2 | O=C(Nc1ccccc1C(=O)O)c1cc(S(=O)(=O)c2ccccc2)ccc1Cl [BAY8002] | – | IC50 ([1]; numeric values): 73 nM
3 | COc1cc(NC(=O)OC(C)C)ccc1-c1cnc([C@H]2CC[C@H](NC(=O)OC(C)C)CC2)s1 [Example 14, isopropyl ((trans)-4-(5-(4-((isopropoxycarbonyl)amino)-2-methoxyphenyl)thiazol-2-yl)cyclohexyl)carbamate] | 150 to 1000 nM | –
4 | CC(C)OC(=O)N[C@H]1CC[C@H](c2ncc(-c3ccc(NC(=O)NCc4ccccc4)cc3N)s2)CC1 [Example 19, isopropyl ((trans)-4-(5-(2-amino-4-(3-benzylureido)phenyl)thiazol-2-yl)cyclohexyl)carbamate] | < 50 nM | –
5 | CC(C)OC(=O)N[C@H]1CC[C@H](c2ncc(-c3ccc(NC(=O)NCc4ccccc4)cc3O)s2)CC1 [Example 20, isopropyl ((trans)-4-(5-(4-(3-benzylureido)-2-hydroxyphenyl)thiazol-2-yl)cyclohexyl)carbamate] | < 50 nM | –
6 | CC(C)OC(=O)Nc1ccc(-c2cnc([C@H]3CC[C@H](NC(=O)OC(C)C)CC3)s2)c(F)c1 [Example 23, isopropyl ((trans)-4-(5-(2-fluoro-4-((isopropoxycarbonyl)amino)phenyl)thiazol-2-yl)cyclohexyl)carbamate] | > 5000 nM | –
7 | COCCn1c(-c2ccc(NC(=O)OC(C)C)cc2F)cnc1[C@H]1CC[C@H](NC(=O)OC(C)C)CC1 [Example 32, isopropyl ((trans)-4-(5-(2-fluoro-4-((isopropoxycarbonyl)amino)phenyl)-1-(2-methoxyethyl)-1H-imidazol-2-yl)cyclohexyl)carbamate] | – | IC50 ([1]; class symbols): > 5000 nM

— patent US20250276952A1, “4-AMINOPHENYL-THIAZOLE DERIVATIVES AND METHODS OF USE THEREOF” (CYTEIR THERAPEUTICS, INC., priority 2022, published 2025)
